Test results reported in PMC12362618, “Development of the First Small-Molecule Inhibitor Targeting Oncostatin M for Treatment of Breast Cancer” (Journal of Medicinal Chemistry, 2025).
pKd: −log10 of the molar value.

Key:
OSM = biological target: T1, OSM (Homo sapiens, UniProt P13725); parameters: method as in earlier report of the authors (Mass et al.); conditions: binds to OSM's site III pocket; ref earlier report of the authors (Mass et al.); read-out: dissociation constant (KD), previously described; cited from earlier work
T1 sequence (P13725 26-252): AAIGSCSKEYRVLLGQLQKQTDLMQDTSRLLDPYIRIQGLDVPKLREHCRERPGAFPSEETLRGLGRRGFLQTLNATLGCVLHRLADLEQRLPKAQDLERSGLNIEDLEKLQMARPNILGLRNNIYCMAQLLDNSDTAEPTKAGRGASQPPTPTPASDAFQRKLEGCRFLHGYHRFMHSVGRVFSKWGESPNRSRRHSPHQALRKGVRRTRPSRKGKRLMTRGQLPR

[1] = Aqueous solubility (comparison in words); assay type: physicochemical; conditions: compared to other analogs

O=C(O)/C=C/c1cc(-c2ccc3c(c2)OCO3)c(-c2ccc3c(c2)OCO3)o1 [SMI-10B, (E)-3-(4,5-Bis(benzo[d][1,3]dioxol-5-yl)furan-2-yl)acrylic acid]
pKd (OSM): > 4.89 | Aqueous solubility [1]: increased aqueous solubility compared to other analogs
